This is an account of results in patent US9023857B2, “Substituted 6-(2-aminobenzylamino)purine derivatives, their use as medicaments and preparations containing these compounds” (Univerzita Palackeho V Olomouci, priority 2009, dated 2015).

Usually IC50 stands for the concentration that gives 50% inhibition.

Data set [1] relates to cervical carcinoma cells HELA. In words: In vitro cytotoxic activity (Calcein AM, 72 hours), HELA. Particulars: Homo sapiens, read-out: Cytotoxicity IC50 HeLa.
For data set [2], the system named is breast carcinoma MCF7. In words: In vitro cytotoxic activity (Calcein AM, 72 hours), MCF7. Particulars: Homo sapiens, MCF7, 72 h, read-out: Cytotoxicity IC50 MCF7.
Data set [3] has as its system human erythroleukaemia K562. In words: In vitro cytotoxic activity (Calcein AM, 72 hours), K562. The following applies: K562, 72 h, read-out: Cytotoxicity IC50 K-562.
Data set [4] deals with promyelocytic leukemia HL 60. In words: In vitro cytotoxic activity (Calcein AM, 72 hours), HL 60. The following applies: Homo sapiens, HL-60, 72 h, read-out: Cytotoxicity IC50 HL60.
Data set [5] relates to human osteogenic sarcoma HOS. In words: In vitro cytotoxic activity (Calcein AM, 72 hours), HOS. Particulars: read-out: Cytotoxicity IC50 HOS.
For data set [6], the system named is human malignant melanoma G 361. In words: In vitro cytotoxic activity (Calcein AM, 72 hours), G 361. The following applies: G-361, 72 h, read-out: Cytotoxicity IC50 G361.
Data set [7] concerns human T-lymphoblastoid leukaemic cell line CEM. In words: In vitro cytotoxic activity (Calcein AM, 72 hours), CEM. Particulars: read-out: Cytotoxicity IC50 CEM.
The test system of data set [8] is p53-responsive reporter pRGCΔfoslacZ in human melanoma cell line Arn8. In words: p53-dependent transcriptional activity, β-galactosidase reporter in Arn8 cells. The following applies: concentration inducing maximum of β-galactosidase activity (p53-responsive reporter).
The target of data set [9] is CDK2/cyclin E (Homo sapiens, UniProt P24941). In words: CDK inhibition assay, CDK2/cyclin E.
The target in data set [10] is CDK9/cyclin T (Homo sapiens, UniProt P50750). In words: CDK inhibition assay, CDK9/cyclin T.
The nature of data set [11]: In vitro cytotoxic activity (Calcein AM, 72 hours), BJ. Particulars: human, BJ normal fibroblasts.
Data set [12] addresses CDK1/cyclin B (Homo sapiens, UniProt P06493). In words: CDK inhibition assay, CDK1/cyclin B.

CDK1/cyclin B, sequence (P06493 whole entry, species assumed): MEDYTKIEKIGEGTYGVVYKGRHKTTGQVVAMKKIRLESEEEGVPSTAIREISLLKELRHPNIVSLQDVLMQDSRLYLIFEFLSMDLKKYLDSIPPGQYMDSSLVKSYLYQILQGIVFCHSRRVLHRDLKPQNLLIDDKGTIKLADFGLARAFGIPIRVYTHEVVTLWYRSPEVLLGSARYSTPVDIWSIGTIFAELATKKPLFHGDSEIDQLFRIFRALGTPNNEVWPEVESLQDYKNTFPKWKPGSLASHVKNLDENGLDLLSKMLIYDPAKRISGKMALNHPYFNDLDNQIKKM
CDK1/cyclin B, sequence (P14635 whole entry partner, species assumed): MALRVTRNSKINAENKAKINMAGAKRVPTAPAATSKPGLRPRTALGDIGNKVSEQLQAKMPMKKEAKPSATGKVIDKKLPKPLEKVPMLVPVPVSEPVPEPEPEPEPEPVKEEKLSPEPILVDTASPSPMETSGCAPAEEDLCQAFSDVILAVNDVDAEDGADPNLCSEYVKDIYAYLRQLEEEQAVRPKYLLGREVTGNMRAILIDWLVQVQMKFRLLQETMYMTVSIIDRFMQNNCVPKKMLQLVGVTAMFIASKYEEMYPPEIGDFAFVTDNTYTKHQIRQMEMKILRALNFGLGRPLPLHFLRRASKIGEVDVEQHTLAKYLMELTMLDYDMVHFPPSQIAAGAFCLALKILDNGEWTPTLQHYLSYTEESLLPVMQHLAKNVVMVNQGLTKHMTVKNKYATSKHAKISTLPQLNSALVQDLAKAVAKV
CDK9/cyclin T, sequence (P50750 whole entry, species assumed): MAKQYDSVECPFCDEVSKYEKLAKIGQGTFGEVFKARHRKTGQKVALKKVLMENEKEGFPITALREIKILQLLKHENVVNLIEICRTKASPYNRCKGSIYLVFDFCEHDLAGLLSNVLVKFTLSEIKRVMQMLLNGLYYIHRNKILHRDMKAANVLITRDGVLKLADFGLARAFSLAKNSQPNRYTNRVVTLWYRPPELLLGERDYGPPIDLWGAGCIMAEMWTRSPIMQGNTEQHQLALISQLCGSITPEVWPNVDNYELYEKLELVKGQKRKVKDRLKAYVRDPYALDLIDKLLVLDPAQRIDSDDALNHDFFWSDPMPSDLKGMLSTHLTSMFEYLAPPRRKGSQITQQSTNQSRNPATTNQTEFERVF
CDK9/cyclin T, sequence (O60563 whole entry partner, species assumed): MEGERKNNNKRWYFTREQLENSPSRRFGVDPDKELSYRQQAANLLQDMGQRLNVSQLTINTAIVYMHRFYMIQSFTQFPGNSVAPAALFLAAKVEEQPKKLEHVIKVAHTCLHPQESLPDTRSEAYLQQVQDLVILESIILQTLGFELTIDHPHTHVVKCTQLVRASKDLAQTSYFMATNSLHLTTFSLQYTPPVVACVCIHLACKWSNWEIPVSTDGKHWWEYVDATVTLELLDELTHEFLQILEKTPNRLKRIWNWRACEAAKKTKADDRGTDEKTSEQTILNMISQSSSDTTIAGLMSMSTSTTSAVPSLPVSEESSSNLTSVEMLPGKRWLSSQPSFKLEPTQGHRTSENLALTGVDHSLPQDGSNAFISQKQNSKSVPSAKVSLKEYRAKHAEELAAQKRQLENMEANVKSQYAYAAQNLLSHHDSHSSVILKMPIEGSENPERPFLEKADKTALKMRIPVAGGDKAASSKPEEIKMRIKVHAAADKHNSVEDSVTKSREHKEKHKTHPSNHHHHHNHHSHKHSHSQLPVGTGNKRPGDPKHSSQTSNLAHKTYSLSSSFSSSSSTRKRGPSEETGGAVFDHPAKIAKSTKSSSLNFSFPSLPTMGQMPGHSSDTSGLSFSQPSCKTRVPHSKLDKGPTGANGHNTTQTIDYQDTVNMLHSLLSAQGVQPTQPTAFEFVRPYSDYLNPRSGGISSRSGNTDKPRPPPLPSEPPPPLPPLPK

For the compound `Cn1cnc2c(NCc3ccccc3N)nc(NC3CCCCC3N)nc21` (stereo not drawn) [Compound 1], the IC50 in [1] was 18 µM; in data set [2] it was 13 µM; in data set [3] it was 46 µM; in data set [4], 31 µM; in data set [5] it was 22 µM; in [6], 22 µM. Besides, the IC50 is 15 µM in [7], 0.8 µM in data set [9], 0.05 µM in [10] and 1.1 µM in [12]. Further, the “Max. β-Gal. Activtity Conc.” value in data set [8] was found to be 34 µM. Besides, the IC50 at 72 h in [11] is above 167 µM.
For `Cn1cnc2c(NCc3ccccc3N)nc(NC3CCC(N)CC3)nc21` (stereo not drawn) [Compound 2], the half-inhibitory concentration (IC50) in [1] was 12 µM; in data set [2], 10 µM; in data set [3], 36 µM; in data set [4], 22 µM; in [5] it was 20 µM; in [6] it was 14 µM. Further, the IC50 in data set [7] was 9 µM; in data set [9] it was 0.4 µM; in [10], 0.01 µM; in [12], 0.7 µM. Also, in data set [8], the “Max. β-Gal. Activtity Conc.” value amounted to 37 µM. In data set [11], the IC50 at 72 h was above 167 µM.
For `CC(C)C(CO)Nc1nc(NCc2ccccc2N)c2ncn(C)c2n1` (stereo not drawn) [Compound 7], the IC50 was 1 µM in data set [1]; 1.5 µM in data set [2]; 5 µM in data set [3]; 2.4 µM in data set [4]; 0.8 µM in data set [5]; 1.2 µM in data set [6]. The IC50 in [7] was 0.9 µM; in data set [9] it was 0.01 µM; in data set [10], 0.001 µM; in data set [12], 0.04 µM. In addition, the “Max. β-Gal. Activtity Conc.” value in data set [8] came to 25 µM. Moreover, the IC50 at 72 h in data set [11] was above 167 µM.
For `CC(Nc1nc(NCc2ccccc2N)c2ncn(C)c2n1)C(C)(C)O` (stereo not drawn) [Compound 9], the “Max. β-Gal. Activtity Conc.” value in data set [8] was found to be 25 µM.
As for `CCC(Nc1nc(NCc2ccccc2N)c2ncn(C)c2n1)C(C)(C)O` (stereo not drawn) [Compound 13], the “Max. β-Gal. Activtity Conc.” value in [8] came to 36 µM.
As to `CCC(CO)Nc1nc(NCc2ccccc2N)c2ncn(CC)c2n1` (stereo not drawn) [Compound 62], the IC50 in data set [1] is 1.6 µM; in data set [2] it was 1.8 µM; in data set [3], 5.4 µM; in data set [4], 6.7 µM; in data set [5], 3.2 µM; in [6] it was 2.5 µM. Besides, the IC50 in data set [7] is 2.4 µM; in [9], 0.01 µM; in [10], 0.0007 µM; in [12] it was 0.07 µM. Moreover, the “Max. β-Gal. Activtity Conc.” value in [8] came to 7 µM. Also, the IC50 at 72 h in data set [11] was above 167 µM.
Take `CCn1cnc2c(NCc3ccccc3N)nc(NC(CO)C(C)C)nc21` (stereo not drawn) [Compound 64]: the IC50 in data set [1] was 1.2 µM; in data set [2] it was 1.3 µM; in data set [3], 4.5 µM; in [4], 2.1 µM; in data set [5], 0.9 µM; in data set [6], 1 µM. Moreover, the IC50 in data set [7] was 0.7 µM; in [9] it was 0.01 µM; in [10], 0.0009 µM; in data set [12], 0.03 µM. Also, the “Max. β-Gal. Activtity Conc.” value in [8] was found to be 6 µM. In data set [11], the IC50 at 72 h was above 167 µM.
As for `CC(C)n1cnc2c(NCc3ccccc3N)nc(N[C@H]3CC[C@H](O)CC3)nc21` [Compound 103], the IC50 was 18 µM in data set [1]; 10.1 µM in data set [2]; 29.8 µM in data set [3]; 36 µM in data set [4]; 63 µM in [5]; 33 µM in data set [6]. In addition, the IC50 was 14 µM in [7], 0.15 µM in [9], 0.003 µM in data set [10] and 0.2 µM in data set [12]. In [8], the “Max. β-Gal. Activtity Conc.” value came to 14 µM. For the same compound, the IC50 at 72 h in [11] is above 167 µM.
With `CCCCCCCNc1nc(NCc2ccccc2N)c2ncn(C(C)C)c2n1` [Compound 106, N-6-(2-aminobenzyl)-N-2-heptyl-9-isopropyl-9H-purin-2,6-diamine], in data set [8], the “Max. β-Gal. Activtity Conc.” value turned out to be 41 µM.
On to `CC(C)C(CO)Nc1nc(NCc2ccccc2N)c2ncn(C(C)C)c2n1` (stereo not drawn) [Compound 107], for which the “Max. β-Gal. Activtity Conc.” value in [8] came to 11 µM. In addition, the IC50 in data set [9] came to 0.04 µM; in [10], 0.002 µM; in data set [12] it was 0.05 µM.
Turning to `CC(C)n1cnc2c(NCc3ccccc3N)nc(NC(C)C(C)(C)O)nc21` (stereo not drawn) [Compound 109], in data set [8], the “Max. β-Gal. Activtity Conc.” value came out at 6 µM.
Still for that read-out and setting: next, `CC(CC(C)(C)O)Nc1nc(NCc2ccccc2N)c2ncn(C(C)C)c2n1` (stereo not drawn) [Compound 111]: 32 µM; `CC(C)n1cnc2c(NCc3ccccc3N)nc(NCC(C)C(C)(C)O)nc21` (stereo not drawn) [Compound 112]: 35 µM; `CCC(Nc1nc(NCc2ccccc2N)c2ncn(C(C)C)c2n1)C(C)(C)O` (stereo not drawn) [Compound 113]: 16 µM.
With `CC(C)n1cnc2c(NCc3cc(F)ccc3N)nc(NC3CCCCC3N)nc21` (stereo not drawn) [Compound 125], the IC50 in data set [2] was 6 µM; in [3] it was 10 µM; in [7], 5 µM; in data set [9], 0.1 µM; in data set [10] it was 0.008 µM; in [12] it was 0.4 µM.
With `CCCCCCCNc1nc(NCc2ccccc2)c2ncn(C(C)C)c2n1` [Compound A218], the IC50 in [1] was 65 µM; in data set [2] it was 42.5 µM; in data set [3], 30.3 µM; in [4], 91 µM; in [5], 105 µM; in data set [6], 83 µM. For the same compound, the IC50 is 37 µM in data set [7], 165 µM in data set [9], 152 µM in data set [10] and 160 µM in [12]. Further, the IC50 at 72 h in [11] is above 167 µM.
Consider `Cn1cnc2c(NCc3ccccc3)nc(NC3CCCCC3N)nc21` (stereo not drawn) [Compound A1140], for which the IC50 in data set [1] was 50 µM; in data set [2], 52 µM; in data set [3], 86 µM; in [4], 69 µM; in data set [5] it was 97 µM; in data set [6], 83 µM. For the same compound, the IC50 in data set [7] was 31 µM; in data set [9] it was 2.7 µM; in data set [10], 2.5 µM; in data set [12] it was 2.3 µM. Also, the IC50 at 72 h in data set [11] is above 167 µM.
Regarding `CC(C)n1cnc2c(NCc3ccccc3)nc(NC3CCC(N)CC3)nc21` (stereo not drawn) [Compound A2141], the IC50 in data set [1] was 28 µM; in [2] it was 33 µM; in [3], 47 µM; in [4], 47 µM; in data set [5], 28 µM; in data set [6] it was 27 µM. The IC50 is 33 µM in [7], 0.5 µM in [9], 0.7 µM in [10] and 0.4 µM in data set [12]. The IC50 at 72 h in data set [11] was above 167 µM.
Take `CC(C)n1cnc2c(NCc3ccccc3)nc(NCC(C)(C)O)nc21` [Compound A2148]: the IC50 in [2] is 65 µM; in data set [3] it was 47 µM; in data set [6], 66 µM; in data set [7], 51 µM; in data set [9], 0.4 µM; in [10], 0.5 µM. In addition, the IC50 in data set [12] is 0.6 µM.
As for `CC[C@H](CO)Nc1nc(NCc2ccccc2)c2ncn(C(C)C)c2n1` [RO], the IC50 in data set [1] was 22 µM; in data set [2], 14 µM; in [3], 52 µM; in data set [4], 35 µM; in data set [5], 24 µM; in data set [6] it was 22 µM. Besides, the IC50 in data set [7] is 14 µM. For the same compound, the “Max. β-Gal. Activtity Conc.” value in [8] was 50 µM. Besides, the IC50 at 72 h in [11] was above 167 µM.
